Key:
Type in all cases: in vivo
[1] = system: transplanted rice; experiment: Test Example 1: preemergence treatment under submerged conditions, effect on crop; conditions: dose 2.52 g/a
From the text: (§1) Test on the Herbicidal Effects in Preemergence Treatment on Weeds Under Submerged Conditions
(§2) Alluvial soil was put in 1/30000-are styrol cups and admixed with water so that it was submerged at a depth of 4 cm. In each cup, seeds of barnyardgrass, bulrush and ducksalad were sown together, and rice seedlings at the 2.5-leaf stage were transplanted. On the same day as the seeding, emulsifiable concentrates containing compounds of the present invention formulated in accordance with Formulation Example 2 were applied to the water surfaces at predetermined doses after diluted with water. The cups were placed in a greenhouse at 25 to 30° C. to grow the plants. Three weeks after the application, the herbicidal effects against various plants were determined on the following evaluation scale.
(§3) 5 mortality of 90% or above (nearly complete death)
(§4) 4 mortality of at least 70% and less than 90%
(§5) 3 mortality of at least 40% and less than 70%
(§6) 2 mortality of at least 20% and less than 40%
(§7) 1 mortality of at least 5% and less than 20%
(§8) 0 mortality of less than 5% (almost ineffective)
(§9) A: barnyardgrass, B: bulrush, C: ducksalad, D: large crabgrass, E: giant foxtail, F: wild oat, G: water foxtail, H: Italian ryegrass, I: velvetleaf, J: common ragweed, K: redroot pigweed, L: common lambsquater, M: posumbu knotweed, N: common chickweed, O: beadstraw, a: transplanted rice, b: corn, c: soybean, d: direct-seeded rice, e: wheat, f: sugar beet.
(§10) The doses (g/a) represents the amounts in g per 1 are (a) applied after adjustment of concentration adjustment.

[2] = system: ducksalad; experiment: Test Example 2: herbicidal effects during the vegetation period under submerged conditions; conditions: treatment during the vegetation period under submerged conditions; dose 2.52 g/a
Procedure: (§11) Test on the Herbicidal Effects on Weeds During the Vegetation Period Under Submerged Conditions
(§12) Alluvial soil was put in 1/30000-are styrol cups and admixed with water so that it was submerged at a depth of 4 cm. In each cup, seeds of barnyardgrass, bulrush and ducksalad were sown together, and the cups were placed in a greenhouse at 25 to 30° C. to grow the plants. When the barnyardgrass, bulrush and ducksalad reached the 1- or 2-leaf stage, emulsifiable concentrates containing compounds of the present invention formulated in accordance with Formulation Example 2 were applied to the water surfaces at predetermined doses after diluted with water. Three weeks after the application, the herbicidal effects against various plants were determined on the same evaluation scale as in Test Example 1.
as §9, §10

[3] = system: bulrush; experiment: as above; conditions: treatment during the vegetation period under submerged conditions; dose 2.52 g/a
Procedure: as §11, §12, §9, §10

[4] = system: barnyardgrass; experiment: as above; conditions: treatment during the vegetation period under submerged conditions; dose 2.52 g/a
Procedure: as §11, §12, §9, §10

[5] = system: Italian ryegrass; experiment: Test Example 4: herbicidal effect in foliage treatment; conditions: dose 3.2 g/a, three weeks after application
From the text: (§13) Test on the Herbicidal Effect in Foliage Treatment
(§14) Sterilized diluvial soil was put in plastic boxes with a length of 21 cm, a width of 13 cm and a depth of 7 cm, and seeds of barnyardgrass, large crabgrass, giant foxtail, wild oat, blackgrass, velvetleaf, common ragweed, redroot pigweed, common lambsquater, posumbu knotweed, common chickweed, corn, soybean, rice, wheat and sugar beet were sown in spots and covered with an about 1.5 cm-thick soil layer. The boxes were placed in a greenhouse at 25 to 30° C. to grow the plants. After 14 days, emulsifiable concentrates containing compounds of the present invention formulated in accordance with Formulation Example 2 were uniformly applied to the foliage at predetermined doses through a small sprayer after diluted with water. Three weeks after the application, the herbicidal effects against various plants were determined on the same evaluation scale as in Test Example 1.
as §9, §10

[6] = system: beadstraw; experiment: as above; conditions: dose 3.2 g/a, three weeks after application
From the text: as §13, §14, §9, §10

[7] = system: water foxtail; experiment: as above; conditions: dose 3.2 g/a, three weeks after application
From the text: as §13, §14, §9, §10

[8] = system: large crabgrass; experiment: as above; conditions: dose 3.2 g/a, three weeks after application
From the text: as §13, §14, §9, §10

[9] = system: redroot pigweed; experiment: as above; conditions: dose 3.2 g/a, three weeks after application
From the text: as §13, §14, §9, §10

[10] = system: velvetleaf; experiment: as above; conditions: dose 3.2 g/a, three weeks after application
From the text: as §13, §14, §9, §10

[11] = system: giant foxtail; experiment: as above; conditions: dose 3.2 g/a, three weeks after application
From the text: as §13, §14, §9, §10

[12] = system: common lambsquater; experiment: as above; conditions: dose 3.2 g/a, three weeks after application
From the text: as §13, §14, §9, §10

[13] = system: common chickweed; experiment: as above; conditions: dose 3.2 g/a, three weeks after application
From the text: as §13, §14, §9, §10

[14] = system: common ragweed; experiment: as above; conditions: dose 3.2 g/a, three weeks after application
From the text: as §13, §14, §9, §10

[15] = system: barnyardgrass; experiment: as above; conditions: dose 3.2 g/a, three weeks after application
From the text: as §13, §14, §9, §10

[16] = system: posumbu knotweed; experiment: as above; conditions: dose 3.2 g/a, three weeks after application
From the text: as §13, §14, §9, §10

[17] = system: Italian ryegrass; experiment: Test Example 3: herbicidal effects in soil treatment; conditions: dose 3.2 g/a
From the text: (§15) Test on the Herbicidal Effects in Soil Treatment
as §14, with “chickweed” for “chickweed,”, “Emulsifiable” for “The boxes were placed in a greenhouse at 25 to 30° C. to grow the plants. After 14 days, emulsifiable”, “soil surfaces” for “foliage”, “dilute” for “diluted”
as §9, §10

[18] = system: water foxtail; experiment: as above; conditions: dose 3.2 g/a
From the text: as §15
as §14, with “chickweed” for “chickweed,”, “Emulsifiable” for “The boxes were placed in a greenhouse at 25 to 30° C. to grow the plants. After 14 days, emulsifiable”, “soil surfaces” for “foliage”, “dilute” for “diluted”
as §9, §10

[19] = system: large crabgrass; experiment: as above; conditions: dose 3.2 g/a
From the text: as §15
as §14, with “chickweed” for “chickweed,”, “Emulsifiable” for “The boxes were placed in a greenhouse at 25 to 30° C. to grow the plants. After 14 days, emulsifiable”, “soil surfaces” for “foliage”, “dilute” for “diluted”
as §9, §10

[20] = system: redroot pigweed; experiment: as above; conditions: dose 3.2 g/a
From the text: as §15
as §14, with “chickweed” for “chickweed,”, “Emulsifiable” for “The boxes were placed in a greenhouse at 25 to 30° C. to grow the plants. After 14 days, emulsifiable”, “soil surfaces” for “foliage”, “dilute” for “diluted”
as §9, §10

[21] = system: velvetleaf; experiment: as above; conditions: dose 3.2 g/a
From the text: as §15
as §14, with “chickweed” for “chickweed,”, “Emulsifiable” for “The boxes were placed in a greenhouse at 25 to 30° C. to grow the plants. After 14 days, emulsifiable”, “soil surfaces” for “foliage”, “dilute” for “diluted”
as §9, §10

[22] = system: giant foxtail; experiment: as above; conditions: dose 3.2 g/a
From the text: as §15
as §14, with “chickweed” for “chickweed,”, “Emulsifiable” for “The boxes were placed in a greenhouse at 25 to 30° C. to grow the plants. After 14 days, emulsifiable”, “soil surfaces” for “foliage”, “dilute” for “diluted”
as §9, §10

[23] = system: common lambsquater; experiment: as above; conditions: dose 3.2 g/a
From the text: as §15
as §14, with “chickweed” for “chickweed,”, “Emulsifiable” for “The boxes were placed in a greenhouse at 25 to 30° C. to grow the plants. After 14 days, emulsifiable”, “soil surfaces” for “foliage”, “dilute” for “diluted”
as §9, §10

[24] = system: common chickweed; experiment: as above; conditions: dose 3.2 g/a
From the text: as §15
as §14, with “chickweed” for “chickweed,”, “Emulsifiable” for “The boxes were placed in a greenhouse at 25 to 30° C. to grow the plants. After 14 days, emulsifiable”, “soil surfaces” for “foliage”, “dilute” for “diluted”
as §9, §10

[25] = system: common ragweed; experiment: as above; conditions: dose 3.2 g/a
From the text: as §15
as §14, with “chickweed” for “chickweed,”, “Emulsifiable” for “The boxes were placed in a greenhouse at 25 to 30° C. to grow the plants. After 14 days, emulsifiable”, “soil surfaces” for “foliage”, “dilute” for “diluted”
as §9, §10

[26] = system: barnyardgrass; experiment: as above; conditions: dose 3.2 g/a
From the text: as §15
as §14, with “chickweed” for “chickweed,”, “Emulsifiable” for “The boxes were placed in a greenhouse at 25 to 30° C. to grow the plants. After 14 days, emulsifiable”, “soil surfaces” for “foliage”, “dilute” for “diluted”
as §9, §10

[27] = system: ducksalad; experiment: Test Example 1: herbicidal effects in preemergence treatment under submerged conditions; conditions: dose 2.52 g/a
From the text: as §1, §2, §3, §4, §5, §6, §7, §8, §9, §10

[28] = system: bulrush; experiment: as above; conditions: dose 2.52 g/a
From the text: as §1, §2, §3, §4, §5, §6, §7, §8, §9, §10

[29] = system: barnyardgrass; experiment: as above; conditions: dose 2.52 g/a
From the text: as §1, §2, §3, §4, §5, §6, §7, §8, §9, §10

CCOC(=O)N(c1ccccc1CN1COC2(CCCC2)CC1=O)S(=O)(=O)C(F)(F)F [II-66]
a: transplanted rice, effect on crop (evaluation scale 0-5) [1]: 0 (mortality of less than 5% (almost ineffective)) | C: ducksalad, herbicidal effect (evaluation scale 0-5) [2]: 5 (mortality of 90% or above (nearly complete death)) | B: bulrush, herbicidal effect (evaluation scale 0-5) [3]: 5 (mortality of 90% or above (nearly complete death)) | A: barnyardgrass, herbicidal effect (evaluation scale 0-5) [4]: 5 (mortality of 90% or above (nearly complete death)) | H: Italian ryegrass, herbicidal effect [5]: 3 (mortality of at least 40% and less than 70%) | O: beadstraw, herbicidal effect [6]: 0 (mortality of less than 5% (almost ineffective)) | G: water foxtail, herbicidal effect [7]: 5 (mortality of 90% or above (nearly complete death)) | D: large crabgrass, herbicidal effect [8]: 3 (mortality of at least 40% and less than 70%) | K: redroot pigweed, herbicidal effect [9]: 0 (mortality of less than 5% (almost ineffective)) | I: velvetleaf, herbicidal effect [10]: 3 (mortality of at least 40% and less than 70%) | E: giant foxtail, herbicidal effect [11]: 4 (mortality of at least 70% and less than 90%) | L: common lambsquater, herbicidal effect [12]: 3 (mortality of at least 40% and less than 70%) | N: common chickweed, herbicidal effect [13]: 4 (mortality of at least 70% and less than 90%) | J: common ragweed, herbicidal effect [14]: 3 (mortality of at least 40% and less than 70%) | A: barnyardgrass, herbicidal effect [15]: 5 (mortality of 90% or above (nearly complete death)) | M: posumbu knotweed, herbicidal effect [16]: 4 (mortality of at least 70% and less than 90%) | H: Italian ryegrass, herbicidal effect (evaluation scale 0-5) [17]: 5 (mortality of 90% or above (nearly complete death)) | G: water foxtail, herbicidal effect (evaluation scale 0-5) [18]: 5 (mortality of 90% or above (nearly complete death)) | D: large crabgrass, herbicidal effect (evaluation scale 0-5) [19]: 5 (mortality of 90% or above (nearly complete death)) | K: redroot pigweed, herbicidal effect (evaluation scale 0-5) [20]: 2 (mortality of at least 20% and less than 40%) | I: velvetleaf, herbicidal effect (evaluation scale 0-5) [21]: 4 (mortality of at least 70% and less than 90%) | E: giant foxtail, herbicidal effect (evaluation scale 0-5) [22]: 5 (mortality of 90% or above (nearly complete death)) | L: common lambsquater, herbicidal effect (evaluation scale 0-5) [23]: 0 (mortality of less than 5% (almost ineffective)) | N: common chickweed, herbicidal effect (evaluation scale 0-5) [24]: 5 (mortality of 90% or above (nearly complete death)) | J: common ragweed, herbicidal effect (evaluation scale 0-5) [25]: 3 (mortality of at least 40% and less than 70%) | A: barnyardgrass, herbicidal effect (evaluation scale 0-5) [26]: 5 (mortality of 90% or above (nearly complete death)) | C: ducksalad, herbicidal effect (evaluation scale 0-5) [27]: 5 (mortality of 90% or above (nearly complete death)) | B: bulrush, herbicidal effect (evaluation scale 0-5) [28]: 5 (mortality of 90% or above (nearly complete death)) | A: barnyardgrass, herbicidal effect (evaluation scale 0-5) [29]: 5 (mortality of 90% or above (nearly complete death))

Reference: patent US20120029187A1, “HALOALKYLSULFONANILIDE DERIVATIVE” (Nissan Chemical Industries, Ltd., priority 2009, published 2012)
